Each block holds one molecule with its values, some of them ahead of it.
How the values were obtained:
[1] = molecular target: T1, D2LR (Homo sapiens, UniProt P14416); assay: ERK1/2 phosphorylation assay, interaction with dopamine; type: cell-based; details: for Kb: operational model of allosterism (Equation 5); for activity at the D2R in words: effect on dopamine concentration-response, highest concentration 300 μM
[2] = molecular target: T2, D2R (Homo sapiens, UniProt P14416); assay: [35S]GTPγS binding assay, interaction with dopamine; type: biochemical; details: composite cooperativity with dopamine
T2 sequence (P14416 whole entry): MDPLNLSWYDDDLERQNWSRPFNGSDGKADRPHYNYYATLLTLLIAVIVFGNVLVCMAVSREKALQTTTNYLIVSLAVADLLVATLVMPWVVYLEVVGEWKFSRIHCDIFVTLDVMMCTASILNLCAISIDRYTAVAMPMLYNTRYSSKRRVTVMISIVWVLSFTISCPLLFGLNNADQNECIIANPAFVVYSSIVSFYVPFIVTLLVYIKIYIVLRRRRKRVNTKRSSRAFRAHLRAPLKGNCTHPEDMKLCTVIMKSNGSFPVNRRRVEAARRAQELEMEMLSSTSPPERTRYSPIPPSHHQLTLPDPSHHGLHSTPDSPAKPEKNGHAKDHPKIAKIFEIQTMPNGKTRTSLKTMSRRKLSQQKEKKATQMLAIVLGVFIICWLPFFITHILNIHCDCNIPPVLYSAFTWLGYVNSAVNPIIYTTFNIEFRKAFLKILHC

[3] = molecular target: T2, D2R; assay: [3H]spiperone binding assay
[4] = molecular target: T1, D2LR; assay: BRET cAMP assay; type: cell-based
[5] = molecular target: Glu95^2.65Ala D2R (Homo sapiens, UniProt P14416, E95A); assay: ERK1/2 phosphorylation assay at mutant D2R; type: cell-based
Glu95^2.65Ala D2R, sequence (P14416 whole entry E95A): as the sequence (P14416 whole entry) above, with E95A counted along it

[6] = molecular target: Val91^2.61Ala D2R (Homo sapiens, UniProt P14416, V91A); assay: ERK1/2 phosphorylation assay at mutant D2R; type: cell-based
Val91^2.61Ala D2R, sequence (P14416 whole entry V91A): as the sequence (P14416 whole entry) above, with V91A counted along it

[7] = molecular target: T2, D2R; assay: Interaction of bitopic ligand 36 with dopamine at the D2R
[8] = WT D2R, binding cooperativity with dopamine
[9] = Table 3, binding cooperativity with dopamine
[10] = Table 4, binding cooperativity with dopamine

T1 sequence (P14416 whole entry): as the sequence (P14416 whole entry) above

Compound: CN(C)CC[C@H]1CC[C@H](NC(=O)c2cc3ccccc3[nH]2)CC1.Cl [Compound 9a, N-((trans)-4-(2-(Dimethylamino)ethyl)cyclohexyl)-1H-indole-2-carboxamide hydrochloride]
Kb ([1]; KB, WT D2R): 3000 nM
Logα [1, 8]: −0.61 ± 0.14
α [1, 8]: 0.25
Logβ ([1]; WT D2R, modulation of dopamine efficacy, fixed to −100 in the fit): −100
Kb ([1]; pKB, WT D2R): 2880 nM
Logαβ [2]: −0.84 ± 0.15
αβ ([2]; <1 negative): 0.14

Compound: NC(=O)c1cc2ccccc2[nH]1 [Compound 11a, 1H-Indole-2-carboxamide]
activity at the D2R in words [1]: does not exhibit receptor binding

Compound: CCNC(=O)c1cc2ccccc2[nH]1 [Compound 11b, N-Ethyl-1H-indole-2-carboxamide]
Logα [1, 9]: −0.35 ± 0.21

Compound: CCCNC(=O)c1cc2ccccc2[nH]1 [Compound 11c, N-Propyl-1H-indole-2-carboxamide]
Logα [1, 9]: −0.60 ± 0.09

Compound: C=CCNC(=O)c1cc2ccccc2[nH]1 [Compound 11e, N-Allyl-1H-indole-2-carboxamide]
Logα [1, 9]: −0.26 ±0.06

Compound: CC(C)(C)NC(=O)c1cc2ccccc2[nH]1 [Compound 11h, N-(tert-Butyl)-1H-indole-2-carboxamide]
Logα [1, 9]: −0.58 ± 0.13

Compound: CC(C)N(C(=O)c1cc2ccccc2[nH]1)C(C)C [Compound 11j, N,N-Diisopropyl-1H-indole-2-carboxamide]
Logα [1, 9]: −1.39 ± 0.11

Compound: O=C(NN1CCCCC1)c1cc2ccccc2[nH]1 [Compound 11s, N-(Piperidin-1-yl)-1H-indole-2-carboxamide]
Logα [1, 9]: −0.53 ± 0.13

Compound: CC(C)NC(=O)c1[nH]c2ccccc2c1F [Compound 13a, 3-Fluoro-N-isopropyl-1H-indole-2-carboxamide]
Logα [1, 9]: −0.72 ± 0.35
α [1, 9]: 0.19

Compound: CC(C)NC(=O)c1cc2c(F)cccc2[nH]1 [Compound 13b, 4-Fluoro-N-isopropyl-1H-indole-2-carboxamide]
Logα [1, 9]: −1.14 ± 0.10

Compound: CC(C)NC(=O)c1cc2cccc(F)c2[nH]1 [Compound 13e, 7-Fluoro-N-isopropyl-1H-indole-2-carboxamide]
Logα [1, 9]: −0.96 ± 0.12

Compound: CC(C)NC(=O)c1cc2ccccc2n1C [Compound 17, N-Isopropyl-1-methyl-1H-indole-2-carboxamide]
activity at the D2R in words [1]: did not show activity

Compound: CC(C)NC(=O)c1nc2ccccc2o1 [Compound 21, N-Isopropylbenzo[d]oxazole-2-carboxamide]
activity at the D2R in words [1]: did not show activity

Compound: CC(C)NC(=O)c1csc2ccccc12 [Compound 25b, N-Isopropylbenzo[b]thiophene-3-carboxamide]
activity at the D2R in words [1]: did not show activity

Compound: CC(C)NC(=O)c1cc2cccnc2[nH]1 [Compound 27, N-Isopropyl-1H-pyrrolo[2,3-b]pyridine-2-carboxamide]
activity at the D2R in words [1]: lack of activity

Compound: CC(C)NC(=O)c1ccc2cc[nH]c2c1 [Compound 30c, N-Isopropyl-1H-indole-6-carboxamide]
Logα [1, 10]: −1.1 ± 0.3

Compound: CC(C)NC(=O)c1cccc2cc[nH]c12 [Compound 30d, N-Isopropyl-1H-indole-7-carboxamide]
activity at the D2R in words [1]: devoid of detectable activity

Other lines, results leading:

Ki [3]: 20000 nM
mode of action in words ([1]; pERK1/2 assay): partial agonist
mode of action in words [4]: competitive partial agonist
Compound: CCCN(CCC)CC[C@H]1CC[C@H](NC(=O)c2cc3ccccc3[nH]2)CC1 [Compound 9b, N-((trans)-4-(2-(Dipropylamino)ethyl)cyclohexyl)-1H-indole-2-carboxamide]

Logα ([5]; Table 5, Glu95^2.65Ala): −1.24 ± 0.17
α ([5]; Table 5, Glu95^2.65Ala): 0.05
Logβ ([5]; Table 5, Glu95^2.65Ala, no modulation of dopamine efficacy): 0
increase in affinity compared to 3 [1]: 7 fold
increase in negative cooperativity compared to 3 [1]: 10 fold
Logα [1, 9]: −1.63 ± 0.11
Logα ([1]; Table 5, Wild Type): −1.63 ± 0.11
α ([1]; Table 5, Wild Type): 0.02
Logβ ([1]; Table 5, Wild Type, constrained): −100
decrease in affinity caused by mutation ([6]; Val91^2.61Ala vs WT): 14 fold
Compound: CCCCNC(=O)c1cc2ccccc2[nH]1 [Compound 11d, N-Butyl-1H-indole-2-carboxamide]

activity at the D2R in words [1]: inactivity
Compound: O=C(NCCO)c1cc2ccccc2[nH]1 [Compound 11f, N-(2-Hydroxyethyl)-1H-indole-2-carboxamide]

Logα [1, 9]: −1.77 ± 0.27
Compound: O=C(NC1CCC1)c1cc2ccccc2[nH]1 [Compound 11p, N-Cyclobutyl-1H-indole-2-carboxamide]

Logα [1, 9]: −0.63 ± 0.11
Compound: O=C(NC1CCCC1)c1cc2ccccc2[nH]1 [Compound 11q, N-Cyclopentyl-1H-indole-2-carboxamide]

activity at the D2R in words [1]: no determinable activity
Compound: O=C(NC1CCCCC1)c1cc2ccccc2[nH]1 [Compound 11r, N-Cyclohexyl-1H-indole-2-carboxamide]

Logα [1, 10]: −1.07 ± 0.22
Compound: CC(C)NC(=O)c1nc2ccccc2[nH]1 [Compound 19, N-Isopropyl-1H-benzo[d]imidazole-2-carboxamide]

activity at the D2R in words [1]: devoid of detectable activity
Compound: CC(C)NC(=O)c1cccc2[nH]ccc12 [Compound 30a, N-Isopropyl-1H-indole-4-carboxamide]

Logα [1, 10]: −1.27 ± 0.3
Compound: CC(C)NC(=O)c1ccc2[nH]ccc2c1 [Compound 30b, N-Isopropyl-1H-indole-5-carboxamide]

Kb [7]: 81.3 nM
increase in affinity as compared to 1 [7]: 10 fold
Logαβ ([7]; Figure 7, negative cooperativity with dopamine): −1.32 ± 0.09
Compound: N#Cc1ccc2c(c1)CN(CCCCNC(=O)c1cc3ccccc3[nH]1)CC2 [Compound 36, N-(4-(7-Cyano-3,4-dihydroisoquinolin-2(1H)-yl)butyl)-1H-indole-2-carboxamide]

LogτA ([5]; E95A D2R expressing cell line): 0.71 ± 0.24
LogτA ([1]; WT D2R expressing cell line): 0.74 ± 0.07
LogτA ([6]; V91A D2R expressing cell line): 0.65 ± 0.19
Compound: NCCc1ccc(O)c(O)c1 [dopamine, reference compound]

— article PMC10823399 (Journal of medicinal chemistry, 2015)
